One data set deals with alveolar macrophages. The data set can be described thus: LPS animal inflammation model: macrophages in bronchoalveolar lavage by flow cytometry. In kind it is in vivo, mouse. Conditions: mice 1 mg/kg single i.v., LPS 20 µg/kg i.p. The text has this: Three hours later, bronchoalveolar lavages were collected.
The next data set deals with TNFα. The data set can be described thus: Resiquimod-triggered TNFα in BALF of mice. In kind it is in vivo. The note with it: mice 1 mg/kg i.v. 1 hour before 50 µg/mouse intranasal resiquimod; 1 and 3 hours.
For a further data set, the system named is SARS-CoV-2. The data set can be described thus: APLICOV-PC clinical study in patients hospitalised for COVID-19: efficacy. In kind it is in vivo, human.
Data set [1] concerns IL6, IL8, IL1β and TNF-α secretion. Briefly: Plitidepsin pre-treatment of THP-1 NFκB luc cells before Resiquimod: cytokines. The note with it: 1, 10 or 50 nM added 8 hours before Resiquimod 2.5 or 5 µg/mL; measured at 24 hours. In kind it is cell-based, human. The method, then: (§1) In a further in vitro experiment, the effect of plitidepsin (APL) pre-treatment on THP-1 cells was studied. Using a THP-1 NFκB luc line, 1, 10 or 50 nM of APL or DMSO (0.2%) was added 8 hours before stimulus with Resiquimod (RQ) at 2.5 or 5 µg/mL. RQ is a TLR⅞ agonist and mimics ssRNA. At 24 hours the level of cytokines or cell viability was measured.

In a further data set the test system is THP-1 cells. Briefly: Plitidepsin pre-treatment of THP-1 NFκB luc cells before Resiquimod: cell viability. The format is cell-based, human. The note with it: 1, 10 or 50 nM added 8 hours before Resiquimod 2.5 or 5 µg/mL; measured at 24 hours. The method, then:
as §1

A further data set deals with HCoV-229E. In kind it is cell-based.
In data set [2] the test system is Huh-7 cells (human hepatoma cell line).
Data set [3] has as its system HIV-1 recombinant virus (NL4.3 Luc). In kind it is cell-based. Conditions: PBMCs.
Data set [4] shares this test system. The format is cell-based. Conditions: MT-2 cells.

Here are results for five compounds from patent US20230295236A1, “COMPOUNDS FOR USE IN INFLAMMATORY CONDITIONS” (priority 2020, published 2023).

Like-named read-outs stand apart in the source and are kept apart here. Numbered stars: 1 amine (or outer) side, 2 acyl side, 3 side chain; on linkers, the order of the positions; unused ones are H or OH. Bridge positions count the residues as written; N and C are the ends. Square brackets hold non-standard residues; d marks the D form. Peptide text beside a SMILES is read from it. * marks the point of attachment. Benzothiophen(2-yl)carbonyl = O=C(c1cc2ccccc2s1)*; X2 = CC[C@H](C)[C@@H](N[*:1])[C@@H](O)CC(=O)[*:2]; NMeY = CN[C@@H](Cc1ccc(O)cc1)C(=O)O; dNMeL = CN[C@H](CC(C)C)C(=O)O; Hiv = CC(C)[C@H](O)C(=O)O; Aib = CC(C)(N)C(=O)O

Regarding `CC[C@H](C)[C@H]1NC(=O)[C@@H](NC(=O)[C@H](CC(C)C)N(C)C(=O)[C@@H]2CCCN2C(=O)C(C)=O)[C@@H](C)OC(=O)[C@H](Cc2ccc(OC)cc2)N(C)C(=O)[C@@H]2CCCN2C(=O)[C@H](CC(C)C)NC(=O)[C@@H](C)C(=O)[C@H](C(C)C)OC(=O)C[C@@H]1O` [PLD, Plitidepsin], the “Macrophages in bronchoalveolar lavage” value in the data set on alveolar macrophages is “reduces the number of macrophages in BAL”. Besides, the “Resiquimod-induced TNFα production in BALF” value with TNFα is “prevented the increased production of TNFα”. In the data set with SARS-CoV-2, the “Median time for PCR conversion” value is given as 7 days. Moreover, in the data set on SARS-CoV-2 (interim results), the “Evaluable patients requiring post PLD specific anti COVID 19 therapy” value is 2 out of 8; the “Evaluable patients with disease control and major clinical improvements” value is 6 out of 8. Besides, the “Evaluable patients with PCR conversion to negative” value in the data set with SARS-CoV-2 (interim results, 1.5 mg and 2 mg cohorts) is on record as 6 out of 8. Further, in the data set with SARS-CoV-2 (interim results, 9 patients), the Deaths on study result was “no deaths on study” and the “Need for mechanical ventilation or ICU admission” value is reported as “none of the patients required mechanical ventilation or ICU admission”. Besides, the “Median time to hospital discharge” value with SARS-CoV-2 (interim results, range (7 -19)) is on record as 8 days. Besides, the “Secretion of IL6, IL8, IL1β and TNF-α induced by RQ” value in data set [1] is “inhibited secretion of the pro-inflammatory cytokines: IL6, IL8, IL1β and TNF-α”. Further, the Cell viability result in the data set with THP-1 cells was “does not decrease viability over the untreated control”. In addition, the “Antiviral activity (GFP fluorescence images)” value in the data set on HCoV-229E was “remarkable antiviral properties are seen across all concentrations”. The “Cell growth / viability (DAPI fluorescence images)” value (shortened to “Cell growth / viability”) in data set [2] is “cells remain viable at all concentrations”.

For the compound `CC[C@H](C)[C@H]1NC(=O)[C@@H](NC(=O)[C@H](CC(C)C)N(C)C(=O)[C@@H]2CCCN2C(=O)C(C)=O)[C@@H](C)OC(=O)[C@H](Cc2ccc(OC)cc2)N(C)C(=O)[C@@H]2CCCN2C(=O)[C@H](CC(C)C)NC(=O)[C@@H](C)C(=O)[C@H](C(C)C)OC(=O)C[C@@H]1O` [Compound 8], the Antiviral activity entry in data set [3] and in data set [4] was “antiviral activity” in each case.

Regarding `CC[C@H](C)[C@H]1NC(=O)[C@@H](NC(=O)[C@@H](CC(C)C)N(C)C(=O)[C@@H]2CCCN2C(=O)[C@H](C)NC(=O)[C@@H](Cc2ccccc2)NC(=O)OC(C)(C)C)[C@@H](C)OC(=O)[C@H](Cc2ccc(OC)cc2)N(C)C(=O)[C@@H]2CCCN2C(=O)[C@H](CC(C)C)NC(=O)[C@@H](C)C(=O)[C@H](C(C)C)OC(=O)C[C@@H]1O` [Compound 9], in the data set on HCoV-229E, the “Antiviral activity (GFP fluorescence images)” value is “remarkable antiviral properties are seen across all concentrations”. In addition, the “Cell growth / viability” value in data set [2] is listed as “cells remain viable at all concentrations”.

Consider `CC[C@H](C)[C@H]1NC(=O)[C@@H](NC(=O)[C@@H](CC(C)C)NC)[C@@H](C)OC(=O)[C@H](Cc2ccc(OC)cc2)N(C)C(=O)[C@@H]2CCCN2C(=O)[C@H](CC(C)C)NC(=O)C(C)(C)NC(=O)C[C@@H]1O` [Compound 3] (H-[dNMeL]T[X2][Aib]LP[NMeY](Me); ester 2-C), for which the “Toxic concentrations (not reached at)” value in the data set with MT-2 cells is reported as above 57.3 µM.

Take `CC[C@H](C)[C@H]1NC(=O)[C@@H](NC(=O)[C@@H](CC(C)C)N(C)C(=O)c2cc3ccccc3s2)[C@@H](C)OC(=O)[C@H](Cc2ccc(OC)cc2)N(C)C(=O)[C@@H]2CCCN2C(=O)[C@H](CC(C)C)NC(=O)[C@H](C(C)C)OC(=O)C[C@@H]1O` [Compound 10] ({Benzothiophen(2-yl)carbonyl}-[dNMeL]T[X2][Hiv]LP[NMeY](Me); ester 2-C): the “Antiviral activity (GFP fluorescence images)” value with HCoV-229E is recorded as “remarkable antiviral properties are seen across all concentrations”. Also, in data set [2], the “Cell growth / viability” value is given as “cells remain viable at all concentrations”.
